Results from patent publication US20100317699A1, “USE OF HEDGEHOG AGONISTS IN THE TREATMENT OF MUSCULOSKELETAL-RELATED DISORDERS” (NOVARTIS AG, priority 2008, published 2010).
Several values for one entry are separate records, joined by “and”; a condition that tells them apart may be missing. Equal values may be shown once. Entries after “also recorded” stand apart in the source; their conditions may differ.

How the values were obtained:
wild-type (WT) mice = experiment: Intramuscular injection into wild-type mouse skeletal muscle, BrdU/Pax7 staining; format: in vivo; details: 500 μM IM once per day for two days
Description: (§1) FIG. 3 is a graphic depiction of the design of in vivo experiments, further detailed herein. 6 to 8-week old wildtype (WT), DMD^MDX, or WT cardiotoxin-injured mice (Ctx-inj) received two consecutive bilateral IM injections of either vehicle (10% DMSO/PBS), or Shh-Ag (500 μM) into tibialis anterior (TA) or gastrocnemius (GA) muscles, followed by an IP injection of BrdU. Mice were sacrificed and muscles were then collected 3 or 7 days following ctx-injury for immunostaining (TA) or FACS analysis (GA); n=4 for all groups.
(§2) Mice. All mouse protocols were approved by the Animal Care and Use Committee of Novartis Institutes for BioMedical Research. Wild-type (C57BL/6J) and C57BL/10 DMD^MDX mice were obtained from Jackson Labs. All analyses were performed on male mice approximately 6-8 weeks of age.
(§3) Shh-Ag treatment. 20 μl (TA) or 50 μl (GA) of vehicle (10% DMSO/PBS) or 500 μM Shh-Ag was injected into the respective tibialis anterior or gastrocnemius muscles once per day for two consecutive days.
(§4) BrdU treatment. […] Three random images from four replicate experiments were analyzed for total cell (Dapi) and BrdU+ cell number. […]
(§5) Immunostaining. […] Images were obtained using an ScanScope XT scanner and analyzed using Aperio ImageScope 6.25 software (Aperio Technologies). […]

Cyclin D1 [1] = experiment: Cyclin D1 protein levels, Western blot densitometry; format: cell-based; details: rSHH 1 μg/mL; densitometric scores relative to vehicle=100
Description: (§6) Protein expression. For details of protein extraction and analysis, please see Supplementary Methods online. Antibodies used for Western are rabbit polyclonal antibodies against Gli1, total Akt, phosphorylated Akt-Ser473 (Cell Signaling) and Cyclin D1 (Abeam).
(§7) Protein Expression. Cells were collected in lysis buffer (20 mM Tris, pH 7.5, 150 mM NaCl, 1 mM EDTA, 1 mM EGTA, 1% Nonidet NP-40, 1 mM β-glycerol phosphate, 1 mM Na3VO4, 1 μg/ml leupeptin, and 1 mM PMSF) and measured for protein concentration with a BCA protein assay kit (Pierce). Electrophoretic separation was performed utilizing 20-60 μg of protein on 4-12% mini-gels (Invitrogen). Proteins were transferred to a PVDF membrane, blocked in 5% blotto [5% powdered milk in TBST (Tris-buffered saline, 1% Tween 20)] for 1 hr followed by an overnight incubation at 4° C. with primary antibody. After overnight incubation, membranes were washed for 30 min in TBST and then probed with anti-rabbit antibody for 45 min at room temperature. After another 30 min of washing in TBST, the blots were developed with ECL. Once the appropriate image was captured, membranes were stained with Coomassie blue to verify equal loading in all lanes. Densitometric measurements were carried out using AlphaEase software (Alpha Innotech).

DMD^MDX mice = experiment: Intramuscular injection into DMD MDX mouse skeletal muscle, BrdU/Pax7 staining; format: in vivo; details: 500 μM IM once per day for two days
Description: as §1, §2, §3, §4, §5

isolated satellite cells = experiment: Isolated satellite cell proliferation, total cell number and BrdU incorporation; format: cell-based, mouse; details: 48 hr treatment, versus vehicle
Description: (§8) Cells. TM3 and C2C12 cells were obtained from ATCC, propagated according to manufacturer's instructions, and maintained at subconfluence. Both primary myoblasts and isolated satellite cells were grown in Ham's F10 media supplemented with 20% Fetal calf serum and 1% Penicillin/Streptomycin without βFGF. All cells were plated on pre-coated collagen dishes (MatTek) or on plastic culture plates treated with rat tail collagen type I (BD).
Myoblast and Satellite cell isolation. Primary mouse myoblasts were isolated from mouse hind-limb muscles as described herein. Muscle satellite cells were isolated from hind-limb muscles of 4-6 week old C57BL/6J mice. Muscles were dissected and finely chopped with razor blades in DMEM. Chopped muscles were placed in a 50 mL Falcon tube with 30 mL of dissociation solution (0.1% Collagenase D, 0.25% Trypsin in DMEM) and agitated at 37° for 20 minutes. Following dissociation, 500 μl of fetal calf serum was added to block Trypsin activity and samples were passed through a 37 μM filter. Solutions were diluted two-fold in DMEM, passed through a […] filter, centrifuged at 1000 RPM for 15 minutes, and the subsequent pellet was re-suspended in 1% FCS/PBS. […]
as §4

Cyclin D1 [2] = experiment: Cyclin D1 mRNA expression in isolated SCs; format: cell-based
Description: (§9) RNA and qRT-PCR. For analysis of gene expression, cells were treated with vehicle (DMSO) or 10 nM Shh-Ag for 24 hours. Total RNA was isolated with RNEasy Miniprep Kit (Qiagen), DNAse treated (RQ1, Promega) and reverse transcribed (iScript, Biorad) according to manufacturers instructions. Quantitative PCR was performed using Taqman Gene Expression Assays (Applied Biosystems) in an ABI7500 Fast system as per manufacturer's instructions. Gene expression changes were calculated using the comparative ΔΔCT method.
Myoblast and Satellite cell isolation. Primary mouse myoblasts were isolated from mouse hind-limb muscles as described herein. Muscle satellite cells were isolated from hind-limb muscles of 4-6 week old C57BL/6J mice. Muscles were dissected and finely chopped with razor blades in DMEM. Chopped muscles were placed in a 50 mL Falcon tube with 30 mL of dissociation solution (0.1% Collagenase D, 0.25% Trypsin in DMEM) and agitated at 37° for 20 minutes. Following dissociation, 500 μl of fetal calf serum was added to block Trypsin activity and samples were passed through a 37 μM filter. Solutions were diluted two-fold in DMEM, passed through a […] filter, centrifuged at 1000 RPM for 15 minutes, and the subsequent pellet was re-suspended in 1% FCS/PBS. Syndecan 4 positive satellite cells were then isolated by fluorescent activated cell sorting (FACS) utilizing an ARIA-UV cell sorter (BD).

Gli1 [3] = experiment: Gli1 mRNA levels in myotubes; format: cell-based; details: 10 μM, 24 hours
Gli1 [4] = experiment: Gli1 protein levels, Western blot densitometry; format: cell-based; details: rSHH 1 μg/mL; densitometric scores relative to vehicle=100
Description: as §6, §7

Cyclin D1 [5] = experiment: Cyclin D1 mRNA expression in myoblasts; format: cell-based
Description: as §9

[6] = test system: WT cardiotoxin-injured mice; experiment: Cardiotoxin-induced muscle injury and regeneration in WT mice, staining and FACS analysis; format: in vivo, mouse
Description: as §1, §2
Cardiotoxin-induced regeneration. Muscle regeneration was induced by injecting 40 μl (TA) or 100 μl (GA) of cardiotoxin (10 μM Naja atra; Sigma) into the respective tibialis anterior or gastrocnemius muscles of WT C57BL/6J mice.
as §3
BrdU treatment. For treatment of isolated SCs, a 1:100 dilution of 5-bromodeoxyuridine (BrdU) labeling reagent (10 mg/mL; Invitrogen) was added to the culture media 24 hours following vehicle or Shh-Ag treatment. Cells were then incubated an additional 5 hours, fixed, probed for BrdU, mounted with Dapi containing medium (Vector Labs), and then imaged as described in Materials in Methods. Three random images from four replicate experiments were analyzed for total cell (Dapi) and BrdU+ cell number. For in vivo delivery, 100 μl of BrdU was intraperitoneally (IP) injected following the second vehicle or Shh-Ag intramuscular injection.
FACS analysis. The following antibodies were used in this study: APC-conjugated anti-CD45 (BD), PE-conjugated anti-Syndecan 4 (BD), and FITC-conjugated anti-BrdU (BioVision). Muscles from treated mice were dissected and dissociated as described. To sort satellite cells for further experimentation, […] anti-syndecan 4 was utilized to positively select cells following ARIA (BD) mediated cell sorting. […]
as §5
To quantify the induction of SC proliferation, ctx-injured and Shh-Ag treated muscle samples (GA) were collected and processed for FACS analysis. A single-cell muscle suspension was gated based on CD45− and Syndecan4+ expression, commonly used identifiers of muscle SCs, and the resultant population was then analyzed for intracellular BrdU localization (see, e.g., FIG. 4). […]

primary myoblasts = experiment: Primary myoblast proliferation, PI staining and FACS analysis; format: cell-based, mouse
Description: as §8
Myoblast isolation. Two to three week-old male C57/BL/6J pups were used for the experiments. The mice were euthanized using CO2. Then the skin and fascia from the ankle joint up toward the hip were peeled to expose underlying muscles. The muscles (hamstring, quadriceps, tibialis anterior, extensor digitorum longus, gastrocnemius and soleus) from both legs were carefully removed, trying to any tendons and non-muscle tissues. The dissected muscles were placed in a sterile […] containing PBS and washed to remove hair and other debris. The muscles were then transferred to a sterile 35 mm^2 dish and 1.5 ml of a collagenase/dispase solution was added to digest the tissues. The tissues were mulched into a reasonably smooth pulp using sterile disposable followed by incubating at 37° C. for 12 min. They were then triturated using 5 ml plastic pipettes to homogenize the mixture. The incubation and triturating step was repeated once more. […]

Compound: CNC1CCC(N(Cc2cccc(-c3ccncc3)c2)C(=O)c2sc3c(F)ccc(F)c3c2Cl)CC1 (stereo not drawn) [Shh-Ag]
- Pax7/BrdU fluorescent co-staining of muscle sections (wild-type (WT) mice): Pax7+/BrdU+ double positive cells were easily seen
- BrdU staining of muscle sections (wild-type (WT) mice; vehicle sections negative): displayed BrdU+ precursor cells
- Cyclin D1 protein levels (Cyclin D1 [1]): elevated protein expression; also recorded: increase
- mononuclear cell infiltration (BrdU+ staining) (DMD^MDX mice): seemed to promote even greater mononuclear cell infiltration
- number of Pax7−/BrdU+ cells (DMD^MDX mice): greatly increased
- increase in the percentage of SCs incorporating BrdU (isolated satellite cells): two fold increase
- increase in Cyclin D1 mRNA expression (Cyclin D1 [2]): more than 50%
- Gli1 mRNA levels, fold increase (Gli1 [3]): over 20 fold
- Gli1 protein levels (Gli1 [4]): induction; also recorded: increase
- increase in Cyclin D1 mRNA expression (Cyclin D1 [5]): more than 50%
- BrdU+, centrally-aligned nuclei in longitudinal muscle sections ([6]; 7 days following ctx-injury): increase in BrdU+, centrally-aligned nuclei
- percent of proliferating (BrdU+) SCs ([6]; ctx-injured GA muscle, FACS, vehicle 4.82±0.33): 10.67±1.87% and 10.6%
- percentage of Pax7 expressing SCs that are Pax7+/BrdU+ double positive ([6]; ctx-injured WT muscle, compared to vehicle control): larger percentage
- number of BrdU+ cells at an early stage of regeneration ([6]; single cardiotoxin injury, WT mice, 500 μM IM): significantly increase

Compound: IGF-1: Insulin-like growth factor I, a known skeletal muscle mitogen signaling through PI3K/Akt
- myoblast proliferation on co-treatment of Shh-Ag with IGF-1 (primary myoblasts): did not significantly increase
